The values below come from ChEMBL document CHEMBL2074394, “Multispecific organic anion transporter is responsible for the biliary excretion of the camptothecin derivative irinotecan and its metabolites in rats” (J Pharmacol Exp Ther, 1997).

Data set [1] has as its target T1, ATP-binding cassette sub-family C member 2 (Rattus norvegicus, UniProt Q63120). The experiment in a line: TP_TRANSPORTER: uptake in bile canalicular membrane vesicles (SD). Format: functional, cell membranes, Sprague-Dawley, Bile canalicular membrane vesicle.
In data set [2] the target is T1, ATP-binding cassette sub-family C member 2. The experiment in a line: TP_TRANSPORTER: uptake in bile canalicular membrane vesicles (EHBR). Format: functional, cell membranes, Bile canalicular membrane vesicle.
For data set [3] the target is unchanged. Briefly: TP_TRANSPORTER: inhibition of DNP-SG uptake in bile canalicular membrane vesicles from SD rat. The format is functional, cell membranes, Sprague-Dawley, Bile canalicular membrane vesicle.
Data set [4] has the same target. The experiment in a line: TP_TRANSPORTER: uptake in canalicular membrane vesicles of liver (EHBR). The format is functional, cell membranes, Canalicular membrane vesicle.
For data set [5] the target is unchanged. Briefly: TP_TRANSPORTER: uptake in canalicular membrane vesicles of liver (SD). The format is functional, cell membranes, Sprague-Dawley, Canalicular membrane vesicle.

T1 sequence (Q63120 whole entry): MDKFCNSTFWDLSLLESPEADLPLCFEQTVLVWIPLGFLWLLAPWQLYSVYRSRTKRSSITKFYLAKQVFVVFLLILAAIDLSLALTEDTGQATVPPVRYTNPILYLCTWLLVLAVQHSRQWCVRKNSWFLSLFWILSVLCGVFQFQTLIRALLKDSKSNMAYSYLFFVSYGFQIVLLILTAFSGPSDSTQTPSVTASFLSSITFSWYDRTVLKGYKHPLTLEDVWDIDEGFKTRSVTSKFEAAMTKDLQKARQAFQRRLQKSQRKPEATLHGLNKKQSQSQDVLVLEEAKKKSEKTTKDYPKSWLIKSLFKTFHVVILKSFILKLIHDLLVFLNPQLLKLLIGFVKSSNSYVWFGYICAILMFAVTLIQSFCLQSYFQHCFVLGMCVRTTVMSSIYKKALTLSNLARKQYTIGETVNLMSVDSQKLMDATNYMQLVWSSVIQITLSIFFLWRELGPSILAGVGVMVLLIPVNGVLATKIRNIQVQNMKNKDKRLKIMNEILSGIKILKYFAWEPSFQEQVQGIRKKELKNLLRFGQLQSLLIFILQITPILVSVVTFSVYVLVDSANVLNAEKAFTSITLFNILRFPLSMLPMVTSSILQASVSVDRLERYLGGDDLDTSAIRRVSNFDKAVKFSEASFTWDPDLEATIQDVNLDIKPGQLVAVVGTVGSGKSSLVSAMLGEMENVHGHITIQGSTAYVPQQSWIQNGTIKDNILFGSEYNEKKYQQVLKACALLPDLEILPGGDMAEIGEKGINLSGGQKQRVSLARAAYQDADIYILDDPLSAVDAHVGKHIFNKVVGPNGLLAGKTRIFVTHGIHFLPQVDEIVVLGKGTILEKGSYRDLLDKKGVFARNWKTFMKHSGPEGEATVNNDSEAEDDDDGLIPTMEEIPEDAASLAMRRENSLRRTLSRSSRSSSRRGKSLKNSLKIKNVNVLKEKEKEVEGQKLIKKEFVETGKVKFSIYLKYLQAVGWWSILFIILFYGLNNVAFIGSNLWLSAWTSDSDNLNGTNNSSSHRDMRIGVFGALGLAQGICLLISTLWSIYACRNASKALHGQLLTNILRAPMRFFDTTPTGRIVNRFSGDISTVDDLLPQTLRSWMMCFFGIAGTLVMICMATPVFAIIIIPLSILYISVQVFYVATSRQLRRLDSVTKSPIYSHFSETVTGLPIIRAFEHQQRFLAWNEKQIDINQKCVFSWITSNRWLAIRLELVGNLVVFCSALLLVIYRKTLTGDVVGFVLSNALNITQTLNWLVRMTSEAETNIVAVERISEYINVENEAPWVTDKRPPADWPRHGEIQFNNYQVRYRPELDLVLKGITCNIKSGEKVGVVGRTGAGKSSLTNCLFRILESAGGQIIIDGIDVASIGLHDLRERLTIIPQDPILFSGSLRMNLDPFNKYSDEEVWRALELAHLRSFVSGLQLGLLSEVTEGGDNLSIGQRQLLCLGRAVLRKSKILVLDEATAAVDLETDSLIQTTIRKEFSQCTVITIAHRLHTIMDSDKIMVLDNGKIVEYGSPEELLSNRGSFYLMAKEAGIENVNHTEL

A word on the Ki: it is a measure of affinity in units of concentration, obtained from inhibition or displacement. Lower therefore signals tighter binding. With `CCc1c2c(nc3ccc(OC[C@@H]4O[C@H](C(=O)O)[C@@H](O)[C@H](O)[C@H]4O)cc13)-c1cc3c(c(=O)n1C2)COC(=O)[C@]3(O)CC`, the Activity result in data set [1] and in data set [2] was “substrate [+]” each time. In data set [3], this compound gave a Ki of 1.62 µM.
Consider `CCc1c2c(nc3ccc(O)cc13)-c1cc([C@@](O)(CC)C(=O)O)c(CO)c(=O)n1C2`, for which the Activity result in data set [1] and in data set [2] was “substrate [+]” each time. Moreover, the Ki in data set [3] amounted to 18.3 µM.
`CCc1c2c(nc3ccc(OC(=O)N4CCC(N5CCCCC5)CC4)cc13)-c1cc([C@@](O)(CC)C(=O)O)c(CO)c(=O)n1C2`: the Activity entry in data set [4] and in data set [5] was “substrate [+]” throughout. In data set [3], this compound had an inhibitory constant (Ki) of 96.6 µM.
For the compound `CCc1c2c(nc3ccc(O[C@@H]4O[C@H](C(=O)O)[C@@H](O)[C@H](O)[C@H]4O)cc13)-c1cc([C@@](O)(CC)C(=O)O)c(CO)c(=O)n1C2`, the Activity entry in data set [1] and in data set [2] was “substrate [+]” each time. In data set [3], this compound displayed a Ki of 1.03 µM.
